Experimental data from paper PMC5288202, “Simultaneous inhibition of Vps34 kinase would enhance PI3Kδ inhibitor cytotoxicity in the B-cell malignancies” (Oncotarget, 2016).
pEC50, pIC50: −log10 of the molar value.

How the values were obtained:
MEC-2 [1] = test: Autophagy markers LC3BII and p62 (immunoblotting); assay type: cell-based
OCI-AML-3 [2] = test: Colony formation (colonogenic assay); assay type: cell-based; settings: Homo sapiens
PI3Kγ = target: T1, PI3Kγ (Homo sapiens, UniProt P48736); test: ADP-Glo biochemical assay; settings: purified protein, 50 μM ATP, read-out: IC50 against PI3Kγ (PIK3CG)
T1 construct: purchased Invitrogen

OCI-AML-3 [3] = test: Cell cycle analysis; assay type: cell-based; settings: OCI-AML-3, 48 h treatment
OCI-AML-2 = test: Cell cycle analysis; assay type: cell-based; settings: OCI-AML-2, 48 h treatment
OCI-AML-3 [4] = test: Anti-proliferative effect; assay type: cell-based; settings: Homo sapiens, AML(FLT3wt)
MV4-11 [5] = test: Induction of apoptosis (PARP cleavage); assay type: cell-based
Hs 505T = test: Anti-proliferative effect; assay type: cell-based; settings: Homo sapiens, read-out: GI50 Hs 505T
[6] = test system: MV4-11 cell-inoculated xenograft; test: MV4-11 xenograft tumor model; assay type: in vivo
Excerpt: Six week old female nu/nu mice were purchased from the Shanghai Experimental Center, Chinese Science Academy (Shanghai). All animals were maintained in a specific pathogen-free facility and used according to the animal care regulations of Hefei Institutes of Physical Science Chinese Academy of Sciences, and all efforts were made to minimize animal suffering. To obtain an […] in the mice, cells were harvested during exponential growth. 7 million MV4-11 cells in PBS were suspended in a 1:1 mixture with Matrigel (BD Biosciences) and injected into the subcutaneous space on the right flank of nu/nu mice. Daily intraperitoneal injection was initiated when MV4-11 tumors had reached a size of 200 to 400 mm^3. Animals were then randomized into treatment groups of 5 mice each for efficacy studies. […] Body weight and tumor growth were measured daily after PI3KD/V-IN-01 treatment. Tumor volumes were calculated as follows: tumor volume (mm^3)=[(W^2× L)/2] in which width (W) is defined as the smaller of the two measurements and length(L) is defined as the larger of the two measurements.
TUNEL staining was performed using the POD in Situ Cell Death Detection kit (Roche, USA). Sections were deparaffinized in xylene, rehydrated in decreasing concentrations of ethanol, then treated by nuclease free Proteinase K for 15 min at room temperature before endogenous peroxidase was blocked in 3% H2O2 in methanol. Terminal deoxynucleotidyl transferase (TdT) in reaction buffer was applied to sections for 1h at 37°C. Following washes, the slides were covered by converter-POD solution for 30 min at 37°C. Apoptotic cells were detected after incubation in the 3, 3′-diaminobenzidine (DAB) chromogen (Beyotime Biotechnology) for approximately 8 min and slides were counterstained with hematoxylin.
Incubations with primary antibodies lasted overnight at 4°C. The secondary detection system was used to visualize antibody binding. Staining was developed with DAB; slides were counterstained with hematoxylin, dehydrated and mounted.

MEC-2 [7] = test: Cell cycle analysis; assay type: cell-based; settings: MEC-2, 48 h treatment
[8] = test system: LC3B puncta in HeLa cells; test: Immunofluorescence of LC3B puncta; assay type: cell-based; settings: 16 hours
Method: HeLa cells were treated with different concentrations of inhibitors for 16 hours. For all immunofluorescence experiments, cells were fixed in -20 °C methanol for 5 minutes or 3.7% (v/v) formaldehyde in phosphate-buffered saline (PBS) for 20 minutes. For LC3B staining, cells were fixed in -20 °C methanol. For EEA1 and LAMP1 staining, cells were fixed in PBS+ formaldehyde. Cells were then permeabilized with TBSTx (0.1% Triton X-100), blocked in AbDil (TBSTx + 2% BSA + 0.1% NaN3), and probed with primary and secondary antibodies diluted in AbDil. Cells were rinsed thoroughly with TBSTx and mounted by anti-fade prolong Gold with DAPI. Images were taken using a Leica DMI4000B fluorescent microscope. All experiments were repeated at least three times). […] Cells were lysed in lysis buffer. P62, LC3B, and GAPDH antibodies were used for immunoblotting.

PI3Kδ = PI3Kδ (Homo sapiens, UniProt O00329); test: Kinase kinetic assay with varied ATP; assay type: biochemical; set-up: purchased Invitrogen; settings: varied ATP concentrations
Method: Kinetic analyses of PI3Kδ and Vps34 were performed using a luminometric kinase assay varying the concentration of ATP using the ADP-Glo reagents (Promega). […] After 60 min incubation at RT, varied concentrations of ATP and 0.1 mM substrate (PIP2:PS for PI3Kδ, PI:PS for Vps34) were added and incubated for 60 min at 37° C. The overall rate of reaction was determined as the slope of the decreasing phase of the reaction. Each data point was collected in duplicate and kinetic parameters were obtained using Prism 5.0 (GraphPad Software, San Diego, CA).

VPS34 = target: T2, VPS34 (Homo sapiens, UniProt Q8NEB9); test: ADP-Glo biochemical assay; settings: purified protein, 50 μM ATP, read-out: IC50 against VPS34
T2 construct: purchased Invitrogen
Method: The activities of PI3Kα, PI3Kβ, PI3Kδ, PI3Kγ, PI3KC2α, PI3KC2β, Vps34, PI4Kα and PI4Kβ were determined by using ADP-Glo assay, a fluorescence-based immunoassay that measures kinase activity in terms of the amount of ADP produced. A kinase titration was performed to determine the concentration. The amount of recombinant kinases was optimized to keep the reaction velocity within the linear range, to obtain an adequate difference between the resulting signals of sample in/out the presence of enzyme. The optimized enzyme concentrations for evaluating the inhibitory activities of compounds were chosen as follows: 0.16 μg/ml, 6.0 μg/ml, 1.0 μg/ml, 5.0 μg/ml, 5.0 μg/ml, 10.0 μg/ml, 1.2 μg/ml, 1.2 μg/ml and 1.0 μg/ml for PI3Kα, PI3Kβ, PI3Kδ, PI3Kγ, PI3KC2α, PI3KC2β, Vps34, PI4Kα and PI4Kβ, respectively. The ATP concentration was optimized, 10 μM ATP for PI3Kα and PI3Kβ, and 50 μM ATP for detection of the other seven kinases. The PI3Kα, PI3Kβ, PI3Kδ, PI3Kγ, PI3KC2α, PI3KC2β kinase reactions were carried out in 10 μl volume in a 384-well plate in the kinase reaction buffer containing 50 mM Hepes pH 7.5, 3 mM MgCl2, 1 mM EGTA, 1 mM NaCl, 0.03% CHAPS and 2 mM DTT. […] 10 μl kinase detection reagent was dded and incubated for 30 min at room temperature, before the luminescence signal was read with an envision PerkinElmer plate reader.

HT = test: Anti-proliferative effect; assay type: cell-based; settings: Homo sapiens, read-out: GI50 HT
OCI-AML-3 [9] = test: Autophagy markers LC3BII and p62 (immunoblotting); assay type: cell-based
mTORC1 kinase = mTORC1 kinase (Homo sapiens, UniProt P42345); test: in vitro IP kinase assay; assay type: biochemical; settings: activity-based in vitro IP kinase assay; read-out: EC50 mTORC1 kinase inhibition
Namalwa = test: Anti-proliferative effect; assay type: cell-based; settings: read-out: GI50 Namalwa
MV4-11 [10] = test: Colony formation (colonogenic assay); assay type: cell-based; settings: Homo sapiens, AML
OCI-AML-3 [11] = test: Induction of apoptosis (PARP cleavage); assay type: cell-based; settings: OCI-AML-3, concentrations up to 10 μM
PI3Kα = target: T3, PI3Kα (Homo sapiens, UniProt P42336); test: ADP-Glo biochemical assay; settings: purified protein, 10 μM ATP, read-out: IC50 against PI3Kα (PIK3CA)
T3 construct: purchased Invitrogen

MV4-11 [12] = test: Anti-proliferative effect; assay type: cell-based; settings: AML (FLT3-ITD)
MV4-11 [13] = test: Autophagy markers LC3BII and p62 (immunoblotting); assay type: cell-based
protein kinases = test: DiscoveRx's KinomeScan selectivity profile; assay type: binding; settings: 1 μM
MEC-2 [14] = test: Colony formation (colonogenic assay); assay type: cell-based; settings: MEC2; CLL
[15] = immunohistochemistry, MV4-11 xenograft

T2 sequence (Q8NEB9 whole entry): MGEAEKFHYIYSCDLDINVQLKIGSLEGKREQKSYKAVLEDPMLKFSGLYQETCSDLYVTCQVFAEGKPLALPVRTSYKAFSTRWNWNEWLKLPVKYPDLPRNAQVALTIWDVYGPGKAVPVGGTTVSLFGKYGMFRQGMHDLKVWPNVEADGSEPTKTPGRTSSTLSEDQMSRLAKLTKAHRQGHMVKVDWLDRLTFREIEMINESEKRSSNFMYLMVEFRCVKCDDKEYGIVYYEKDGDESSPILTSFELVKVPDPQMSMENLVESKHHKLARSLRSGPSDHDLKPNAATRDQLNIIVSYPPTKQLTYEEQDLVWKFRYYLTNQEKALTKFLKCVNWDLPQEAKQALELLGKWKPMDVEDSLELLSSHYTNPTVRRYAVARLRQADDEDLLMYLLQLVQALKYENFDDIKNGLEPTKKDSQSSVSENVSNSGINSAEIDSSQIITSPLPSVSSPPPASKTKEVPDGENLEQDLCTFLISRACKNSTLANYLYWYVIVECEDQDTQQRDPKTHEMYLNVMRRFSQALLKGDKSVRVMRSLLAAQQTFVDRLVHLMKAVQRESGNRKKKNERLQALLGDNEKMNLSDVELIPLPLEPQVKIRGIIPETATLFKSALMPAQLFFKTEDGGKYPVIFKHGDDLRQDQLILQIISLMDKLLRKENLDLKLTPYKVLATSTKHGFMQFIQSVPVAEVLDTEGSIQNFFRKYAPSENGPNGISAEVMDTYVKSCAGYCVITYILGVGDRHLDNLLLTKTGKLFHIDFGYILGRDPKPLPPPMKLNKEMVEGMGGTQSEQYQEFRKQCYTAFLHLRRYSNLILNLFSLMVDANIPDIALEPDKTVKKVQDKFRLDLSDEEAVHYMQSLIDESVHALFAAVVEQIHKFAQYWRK
T3 sequence (P42336 whole entry): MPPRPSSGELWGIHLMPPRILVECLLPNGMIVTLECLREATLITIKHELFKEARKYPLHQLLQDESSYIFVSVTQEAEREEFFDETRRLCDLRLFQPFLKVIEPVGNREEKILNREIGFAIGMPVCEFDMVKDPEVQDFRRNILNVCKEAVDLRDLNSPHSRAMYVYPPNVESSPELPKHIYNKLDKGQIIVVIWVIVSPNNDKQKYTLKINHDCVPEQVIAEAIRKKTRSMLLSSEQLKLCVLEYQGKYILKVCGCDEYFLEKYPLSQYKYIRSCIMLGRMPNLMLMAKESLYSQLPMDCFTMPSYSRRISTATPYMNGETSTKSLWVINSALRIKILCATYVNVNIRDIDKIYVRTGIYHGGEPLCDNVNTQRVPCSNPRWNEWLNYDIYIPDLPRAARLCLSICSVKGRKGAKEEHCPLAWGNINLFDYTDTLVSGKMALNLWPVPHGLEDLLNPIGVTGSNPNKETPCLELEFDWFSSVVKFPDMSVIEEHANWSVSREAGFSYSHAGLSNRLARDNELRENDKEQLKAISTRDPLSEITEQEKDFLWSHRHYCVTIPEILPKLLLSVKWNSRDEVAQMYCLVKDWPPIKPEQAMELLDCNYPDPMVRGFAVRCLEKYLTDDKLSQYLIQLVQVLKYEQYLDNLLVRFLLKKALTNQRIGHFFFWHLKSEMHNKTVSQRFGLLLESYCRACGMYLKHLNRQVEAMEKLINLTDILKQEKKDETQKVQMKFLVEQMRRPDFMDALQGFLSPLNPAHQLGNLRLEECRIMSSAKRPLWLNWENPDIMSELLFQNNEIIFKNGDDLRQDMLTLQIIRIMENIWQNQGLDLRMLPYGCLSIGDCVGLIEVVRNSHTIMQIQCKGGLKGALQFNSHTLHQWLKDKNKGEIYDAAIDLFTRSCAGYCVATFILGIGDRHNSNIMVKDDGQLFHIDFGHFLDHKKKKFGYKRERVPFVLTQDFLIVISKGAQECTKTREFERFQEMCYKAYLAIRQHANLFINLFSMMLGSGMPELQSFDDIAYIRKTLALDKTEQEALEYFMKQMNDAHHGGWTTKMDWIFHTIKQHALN
T3 sequence (P27986 whole entry partner): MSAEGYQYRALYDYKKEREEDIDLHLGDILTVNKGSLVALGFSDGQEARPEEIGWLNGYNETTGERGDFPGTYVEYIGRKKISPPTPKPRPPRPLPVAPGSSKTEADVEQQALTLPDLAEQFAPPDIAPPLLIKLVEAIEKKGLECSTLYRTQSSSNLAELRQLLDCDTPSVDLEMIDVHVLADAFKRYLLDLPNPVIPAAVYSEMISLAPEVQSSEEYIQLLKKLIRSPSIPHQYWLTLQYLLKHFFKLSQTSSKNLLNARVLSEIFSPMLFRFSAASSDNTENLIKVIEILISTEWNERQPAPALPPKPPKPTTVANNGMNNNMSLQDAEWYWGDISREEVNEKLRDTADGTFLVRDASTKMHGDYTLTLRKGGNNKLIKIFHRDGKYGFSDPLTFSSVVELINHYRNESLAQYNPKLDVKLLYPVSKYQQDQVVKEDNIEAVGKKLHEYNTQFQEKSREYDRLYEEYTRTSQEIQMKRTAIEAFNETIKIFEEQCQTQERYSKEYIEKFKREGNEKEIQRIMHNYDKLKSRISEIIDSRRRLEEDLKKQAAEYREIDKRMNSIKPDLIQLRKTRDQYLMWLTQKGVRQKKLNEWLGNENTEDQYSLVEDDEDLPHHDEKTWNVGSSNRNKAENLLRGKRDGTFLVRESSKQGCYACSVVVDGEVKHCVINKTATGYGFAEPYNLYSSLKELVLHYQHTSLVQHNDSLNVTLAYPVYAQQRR
Sequence of PI3Kδ (O00329 whole entry): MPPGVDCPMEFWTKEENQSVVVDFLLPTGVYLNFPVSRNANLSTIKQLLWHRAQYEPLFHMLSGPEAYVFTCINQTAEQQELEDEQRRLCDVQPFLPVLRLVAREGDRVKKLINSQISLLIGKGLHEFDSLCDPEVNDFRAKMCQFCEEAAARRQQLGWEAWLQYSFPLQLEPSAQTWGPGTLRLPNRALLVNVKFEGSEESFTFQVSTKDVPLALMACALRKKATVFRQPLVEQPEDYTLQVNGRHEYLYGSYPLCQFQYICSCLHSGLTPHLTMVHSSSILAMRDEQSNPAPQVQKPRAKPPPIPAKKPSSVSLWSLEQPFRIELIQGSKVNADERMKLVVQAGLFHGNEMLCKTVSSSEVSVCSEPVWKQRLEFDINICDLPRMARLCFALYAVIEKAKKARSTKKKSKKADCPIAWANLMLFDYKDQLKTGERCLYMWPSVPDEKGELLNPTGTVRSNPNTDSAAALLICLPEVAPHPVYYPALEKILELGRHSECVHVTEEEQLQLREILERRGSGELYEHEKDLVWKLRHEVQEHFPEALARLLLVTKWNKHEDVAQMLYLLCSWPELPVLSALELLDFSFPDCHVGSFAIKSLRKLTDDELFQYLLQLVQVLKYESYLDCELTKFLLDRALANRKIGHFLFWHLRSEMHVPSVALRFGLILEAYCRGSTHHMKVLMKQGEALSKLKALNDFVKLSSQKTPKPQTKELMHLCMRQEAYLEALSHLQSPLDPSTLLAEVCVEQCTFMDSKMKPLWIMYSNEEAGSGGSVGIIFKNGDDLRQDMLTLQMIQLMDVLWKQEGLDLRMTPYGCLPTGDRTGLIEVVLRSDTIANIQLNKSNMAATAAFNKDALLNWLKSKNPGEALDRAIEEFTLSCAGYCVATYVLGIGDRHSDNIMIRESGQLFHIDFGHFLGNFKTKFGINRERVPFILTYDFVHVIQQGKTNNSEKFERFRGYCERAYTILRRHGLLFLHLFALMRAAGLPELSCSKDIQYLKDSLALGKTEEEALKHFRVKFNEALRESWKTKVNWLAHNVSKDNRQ
Sequence of PI3Kδ (P27986 whole entry partner): as the sequence (P27986 whole entry partner) above
T1 sequence (P48736 whole entry): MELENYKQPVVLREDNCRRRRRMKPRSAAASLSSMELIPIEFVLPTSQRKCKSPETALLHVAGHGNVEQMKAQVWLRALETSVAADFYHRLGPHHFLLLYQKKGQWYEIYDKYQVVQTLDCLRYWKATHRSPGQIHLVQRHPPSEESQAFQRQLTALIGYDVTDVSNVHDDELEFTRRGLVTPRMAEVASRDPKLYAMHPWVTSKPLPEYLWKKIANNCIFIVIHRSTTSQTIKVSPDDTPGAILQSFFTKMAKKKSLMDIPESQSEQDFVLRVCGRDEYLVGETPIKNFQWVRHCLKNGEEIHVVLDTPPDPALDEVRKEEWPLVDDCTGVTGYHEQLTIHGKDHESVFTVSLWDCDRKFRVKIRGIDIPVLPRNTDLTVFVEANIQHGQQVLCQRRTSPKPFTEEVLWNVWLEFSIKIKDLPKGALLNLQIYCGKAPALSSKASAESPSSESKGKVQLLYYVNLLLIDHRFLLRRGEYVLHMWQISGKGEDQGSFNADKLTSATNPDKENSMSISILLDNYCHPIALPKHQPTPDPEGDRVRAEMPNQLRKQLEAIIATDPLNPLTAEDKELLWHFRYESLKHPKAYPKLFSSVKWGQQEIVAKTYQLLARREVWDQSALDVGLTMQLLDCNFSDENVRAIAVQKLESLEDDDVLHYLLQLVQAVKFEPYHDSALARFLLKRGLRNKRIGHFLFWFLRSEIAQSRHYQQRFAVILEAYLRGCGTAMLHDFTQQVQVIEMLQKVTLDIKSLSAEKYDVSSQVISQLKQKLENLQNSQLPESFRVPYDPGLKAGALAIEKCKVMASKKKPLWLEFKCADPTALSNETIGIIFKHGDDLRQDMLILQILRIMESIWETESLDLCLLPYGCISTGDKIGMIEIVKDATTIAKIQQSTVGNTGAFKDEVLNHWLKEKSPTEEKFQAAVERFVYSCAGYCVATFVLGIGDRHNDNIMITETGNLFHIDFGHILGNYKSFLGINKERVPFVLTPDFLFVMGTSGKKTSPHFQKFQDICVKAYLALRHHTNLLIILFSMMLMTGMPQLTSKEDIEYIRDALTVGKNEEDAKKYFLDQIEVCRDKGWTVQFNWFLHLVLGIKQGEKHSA

## Cc1nc(NC(=O)CN)sc1-c1cnc(Cl)c(NS(=O)(=O)c2ccc(C(C)(C)C)cc2)c1 [PI3KD/V-IN-01, 2-amino-N-(5-(5-(4-tert-butylphenylsulfonamido)-6-chloropyridin-3-yl)-4-methylthiazol-2-yl)acetamide]
MEC-2 [1]
  levels of the autophagy markers, LC3BII and p62: concentration-dependent increase
OCI-AML-3 [2]
  pEC50: 6.00
PI3Kγ
  pIC50: 6.92
OCI-AML-3 [3]
  cell cycle progression: arrested in the G0/G1 phase
OCI-AML-2
  cell cycle progression: no apparent cell cycle inhibition
OCI-AML-3 [4]
  GI50: 2400 nM
MV4-11 [5]
  induction of apoptosis: apparent PARP cleavage observed
Hs 505T
  GI50: > 10000 nM
[6]; 50 mg/kg/day administered intraperitoneal, MV4-11 xenograft mice
  TGI (Tumor growth inhibition): 86.8%
[6]; 50 mg/kg/day, MV4-11 xenograft mice
  effect on body weight: no apparent effects on body weight
[6]; [15]
  apoptosis in tumor tissue (TUNEL stain): dose-dependently increased
  cell proliferation in tumor tissue (Ki67 stain): dose-dependently inhibited
MEC-2 [7]
  cell cycle progression: arrested in the G0/G1 phase
[8]
  Effect on LC3B puncta: increased LC3B puncta
PI3Kδ
  Mode of inhibition against PI3Kδ: ATP competitive inhibitor
VPS34
  pIC50: 7.72
HT
  GI50: 1900 nM
OCI-AML-3 [9]
  levels of the autophagy markers, LC3BII and p62: concentration-dependent increase
mTORC1 kinase
  pEC50: 5.77
Namalwa
  GI50: 1300 nM
MV4-11 [10]
  pEC50: 6.91
OCI-AML-3 [11]
  induction of apoptosis: no apoptosis was observed
PI3Kα
  pIC50: 7.19
MV4-11 [12]
  GI50: 780 nM
MV4-11 [12]; Homo sapiens, MV4-11
  GI50: < 1000 nM
MV4-11 [13]
  levels of the autophagy markers, LC3BII and p62: not observed
Protein kinases
  S score (5): 0.00
MEC-2 [14]
  pEC50: 5.80
